Paper PMC12423301, “Astrocytic monoamine oxidase B (MAOB)–gamma-aminobutyric acid (GABA) axis as a molecular brake on repair following spinal cord injury” (Signal Transduction and Targeted Therapy, 2025)

Columns and labels:
[1] = Phase 1 clinical trial: pharmacokinetics
Experimental: All subjects provided consent for this phase 1 clinical trial study. The study comprised 11 cohorts: single ascending dose (SAD) and multiple ascending dose (MAD) studies. […] Cohort 3 employed a two-period crossover design with a 14-day washout.
The parameters related to plasma concentrations were calculated via non-compartmental analysis using the linear-up log-down method in Phoenix WinNonlin software version 8.3 (Certara, US). The parameters related to urine concentrations were calculated using the linear trapezoidal linear interpolation method.
In the SAD study, plasma samples were collected using sodium K2-EDTA tubes at pre-dose, 0.33, 0.75, 1, 2, 3, 4, 6, 8, 12, 24, 48, 72, 96, 120, and 144 h after dosing. Urine samples were collected up to 72 h post-dose. In the MAD study, plasma samples were collected at pre-dose, 0.33, 0.75, 1, 2, 3, 4, 6, 8, 12 and 24 h after the administration of the first dose, and at pre-dose of the third to seventh doses. After the administration of the seventh dose, plasma samples were collected at the same time points as after the first dose, with additional sampling points at 48, 72, 96, 120, and 144 h post-dose. Urine samples were collected for 24 h after the administration of the first dose and for 72 h after the seventh dose.
For the clinical trial, dose proportionality of the PK parameters (Cmax, Cmax,ss, AUClast, and AUCτ) was assessed using power model using the following equation: log (PK parameter) = β0 + β1 log (dose). The regression slope (β1) and the intercept (β0) were estimated with 95% confidence interval (CI) using PROC REG in SAS version 9.4. The PK parameters were considered dose-proportional if the 95% CI of the β1 included 1. […] Using a linear mixed effect model, the logarithmized PK parameters were analyzed with the high-gat meal as a fixed effect and inter-individual differences as a random effect. The GMR and its 90% CI of the PK parameters of the high-fat meal were calculated relative to those in the fasting state. […] In elderly subjects, the same analyses were performed and compared to those of healthy younger adults.

[2] = Body weight of rats on medicated drinking water; assay type: in vivo, rat
Experimental: (S)-2-(((4’-Trifluoromethylbiphenyl-4-yl)methyl)amino)propanamide methane-sulfonate (KDS2010) was dissolved in distilled water. For SD rats, KDS2010 was administered via the drinking water ad libitum. […] To evaluate dose-dependent effects, additional groups received 20 mg/kg/day or 30 mg/kg/day starting at PI 2 weeks. To achieve consistent exposure across animals, we meticulously monitored the daily water intake and body weight of each rat throughout the study. As shown in the Extended Data (Supplementary Table 1), water consumption was calculated weekly via a formula based on body weight (e.g., d.w = weight × 0.09 at week 0; gradually tapering to weight × 0.075 by weeks 8–9). Importantly, all animals were confirmed to have consumed the entirety of the provided medicated water each day, ensuring full ingestion of the intended dose (10 mg/kg/day for the majority of groups, and 20/30 mg/kg/day for the dose-dependent experiments).

Structure (SMILES): CS(=O)(=O)O.C[C@H](NCc1ccc(-c2ccc(C(F)(F)F)cc2)cc1)C(N)=O [KDS2010, (S)-2-(((4’-Trifluoromethylbiphenyl-4-yl)methyl)amino)propanamide methane-sulfonate]
- increase of systemic exposure (AUCinf and AUCτ,ss) with dose ([1]; 60 mg to 480 mg): dose-proportional
- higher exposure in elderly subjects ([1]; 120 mg for 7 days, elderly vs young): approximately 25%
- pharmacokinetic profiles, Korean vs Caucasian subjects ([1]; 60, 120, 240, 480 mg at steady state): similar
- unchanged drug excreted in the urine ([1]; healthy humans): Less than 1%
- AUC(0-inf) ([1]; human, in vivo, 120 mg): 13.9 µg·h/mL
- effect of a high-fat meal on systemic exposure (Cmax and AUCinf) ([1]; human, in vivo, 120 mg): did not affect
- half-life ([1]; human, in vivo, po): 44.2 h
- time to maximum plasma concentration (Cmax) ([1]; human, in vivo, po): 3 h
- Weekly change in body weight ([2]; SCI/KDS 2w 20mpk, 0w): 0.00 g
- Weekly change in body weight ([2]; SCI/KDS 2w 20mpk, 1w): 29.33 g
- Weekly change in body weight ([2]; SCI/KDS 2w 20mpk, 2w): 13.61 g
- Weekly change in body weight ([2]; SCI/KDS 2w 20mpk, 3w): 54.00 g
- Weekly change in body weight ([2]; SCI/KDS 2w 20mpk, 4s): 16.28 g
- Weekly change in body weight ([2]; SCI/KDS 2w 20mpk, 5s): 31.61 g
- Weekly change in body weight ([2]; SCI/KDS 2w 20mpk, 6s): 12.56 g
- Weekly change in body weight ([2]; SCI/KDS 2w 20mpk, 7w): 24.17 g
- Weekly change in body weight ([2]; SCI/KDS 2w 20mpk, 8w): 13.00 g
- Weekly change in body weight ([2]; SCI/KDS 2w 20mpk, 9w): 10.89 g
- Weekly change in body weight ([2]; SCI/KDS 2w 30mpk, 0w): 0.00 g
- Weekly change in body weight ([2]; SCI/KDS 2w 30mpk, 1w): 34.43 g
- Weekly change in body weight ([2]; SCI/KDS 2w 30mpk, 2w): 10.86 g
- Weekly change in body weight ([2]; SCI/KDS 2w 30mpk, 3w): 39.90 g
- Weekly change in body weight ([2]; SCI/KDS 2w 30mpk, 4s): 17.36 g
- Weekly change in body weight ([2]; SCI/KDS 2w 30mpk, 5s): 22.40 g
- Weekly change in body weight ([2]; SCI/KDS 2w 30mpk, 6s): 10.84 g
- Weekly change in body weight ([2]; SCI/KDS 2w 30mpk, 7w): 19.91 g
- Weekly change in body weight ([2]; SCI/KDS 2w 30mpk, 8w): 17.56 g
- Weekly change in body weight ([2]; SCI/KDS 2w 30mpk, 9w): 3.43 g
- Weekly change in body weight ([2]; SCI/KDS 2w, 0w): 0.00 g
- Weekly change in body weight ([2]; SCI/KDS 2w, 1w): 47.67 g
- Weekly change in body weight ([2]; SCI/KDS 2w, 2w): 16.00 g
- Weekly change in body weight ([2]; SCI/KDS 2w, 3w): 33.67 g
- Weekly change in body weight ([2]; SCI/KDS 2w, 4s): 31.00 g
- Weekly change in body weight ([2]; SCI/KDS 2w, 5s): 31.33 g
- Weekly change in body weight ([2]; SCI/KDS 2w, 6s): 16.67 g
- Weekly change in body weight ([2]; SCI/KDS 2w, 7w): 18.33 g
- Weekly change in body weight ([2]; SCI/KDS 2w, 8w): 11.67 g
- Weekly change in body weight ([2]; SCI/KDS 2w, 9w): 7.17 g
- Weekly change in body weight ([2]; SCI/KDS 2w, 10w): 14.50 g
- Weekly change in body weight ([2]; SCI/KDS 2w, 11w): 8.00 g
- Weekly change in body weight ([2]; SCI/KDS 2w, 12w): 1.50 g
- Weekly change in body weight ([2]; SCI/KDS 2w, 13w): 7.50 g
- Weekly change in body weight ([2]; SCI/KDS 6w, 0w): 0.00 g
- Weekly change in body weight ([2]; SCI/KDS 6w, 1w): 24.00 g
- Weekly change in body weight ([2]; SCI/KDS 6w, 2w): 27.50 g
- Weekly change in body weight ([2]; SCI/KDS 6w, 3w): 36.00 g
- Weekly change in body weight ([2]; SCI/KDS 6w, 4s): 31.50 g
- Weekly change in body weight ([2]; SCI/KDS 6w, 5s): 14.50 g
- Weekly change in body weight ([2]; SCI/KDS 6w, 6s): 13.00 g
- Weekly change in body weight ([2]; SCI/KDS 6w, 7w): 17.50 g
- Weekly change in body weight ([2]; SCI/KDS 6w, 8w): 7.00 g
- Weekly change in body weight ([2]; SCI/KDS 6w, 9w): 13.00 g
- Weekly change in body weight ([2]; SCI/KDS 6w, 10w): 11.00 g
- Weekly change in body weight ([2]; SCI/KDS 6w, 11w): 8.00 g
- Weekly change in body weight ([2]; SCI/KDS 6w, 12w): 7.00 g
- Weekly change in body weight ([2]; SCI/KDS 6w, 13w): 8.00 g
- Weekly change in body weight ([2]; SCI/KDS 1d, 0w): 0.00 g
- Weekly change in body weight ([2]; SCI/KDS 1d, 1w): -44.55 g
- Weekly change in body weight ([2]; SCI/KDS 1d, 2w): 21.82 g
- Weekly change in body weight ([2]; SCI/KDS 1d, 3w): 23.03 g
- Weekly change in body weight ([2]; SCI/KDS 1d, 4s): 50.91 g
- Weekly change in body weight ([2]; SCI/KDS 1d, 5s): 28.03 g
- Weekly change in body weight ([2]; SCI/KDS 1d, 6s): 16.82 g
- Weekly change in body weight ([2]; SCI/KDS 1d, 7w): 19.85 g
- Weekly change in body weight ([2]; SCI/KDS 1d, 8w): 14.70 g
- Weekly change in body weight ([2]; SCI/KDS 1d, 9w): 7.88 g
- Weekly change in body weight ([2]; Sham/KDS 2w, 0w): 0.00 g
- Weekly change in body weight ([2]; Sham/KDS 2w, 1w): 33.00 g
- Weekly change in body weight ([2]; Sham/KDS 2w, 2w): 17.00 g
- Weekly change in body weight ([2]; Sham/KDS 2w, 3w): 32.00 g
- Weekly change in body weight ([2]; Sham/KDS 2w, 4s): 31.00 g
- Weekly change in body weight ([2]; Sham/KDS 2w, 5s): 21.00 g
- Weekly change in body weight ([2]; Sham/KDS 2w, 6s): 8.00 g
- Weekly change in body weight ([2]; Sham/KDS 2w, 7w): 25.00 g
- Weekly change in body weight ([2]; Sham/KDS 2w, 8w): 10.00 g
- Weekly change in body weight ([2]; Sham/KDS 2w, 9w): 10.00 g
- Weekly change in body weight ([2]; Sham/KDS 1d, 0w): 0.00 g
- Weekly change in body weight ([2]; Sham/KDS 1d, 1w): 26.67 g
- Weekly change in body weight ([2]; Sham/KDS 1d, 2w): 3.33 g
- Weekly change in body weight ([2]; Sham/KDS 1d, 3w): 30.00 g
- Weekly change in body weight ([2]; Sham/KDS 1d, 4s): 50.00 g
- Weekly change in body weight ([2]; Sham/KDS 1d, 5s): 25.00 g
- Weekly change in body weight ([2]; Sham/KDS 1d, 6s): 21.67 g
- Weekly change in body weight ([2]; Sham/KDS 1d, 7w): 18.33 g
- Weekly change in body weight ([2]; Sham/KDS 1d, 8w): 8.33 g
- Weekly change in body weight ([2]; Sham/KDS 1d, 9w): 23.33 g
